This is an account of results in patent US6756504B2, “Sphingolipids” (Yissum Research Development Company of the Hebrew …, priority 2000, dated 2004).

One assay addresses T1, acid sphingomyelinase (Homo sapiens, UniProt P17405).
T1 construct: a sonicate of HL60 leukemic cells was used as enzyme source; endogenous in cells; host or cells: HL60 leukemic cells (sonicate)
T1 sequence (P17405 47-631): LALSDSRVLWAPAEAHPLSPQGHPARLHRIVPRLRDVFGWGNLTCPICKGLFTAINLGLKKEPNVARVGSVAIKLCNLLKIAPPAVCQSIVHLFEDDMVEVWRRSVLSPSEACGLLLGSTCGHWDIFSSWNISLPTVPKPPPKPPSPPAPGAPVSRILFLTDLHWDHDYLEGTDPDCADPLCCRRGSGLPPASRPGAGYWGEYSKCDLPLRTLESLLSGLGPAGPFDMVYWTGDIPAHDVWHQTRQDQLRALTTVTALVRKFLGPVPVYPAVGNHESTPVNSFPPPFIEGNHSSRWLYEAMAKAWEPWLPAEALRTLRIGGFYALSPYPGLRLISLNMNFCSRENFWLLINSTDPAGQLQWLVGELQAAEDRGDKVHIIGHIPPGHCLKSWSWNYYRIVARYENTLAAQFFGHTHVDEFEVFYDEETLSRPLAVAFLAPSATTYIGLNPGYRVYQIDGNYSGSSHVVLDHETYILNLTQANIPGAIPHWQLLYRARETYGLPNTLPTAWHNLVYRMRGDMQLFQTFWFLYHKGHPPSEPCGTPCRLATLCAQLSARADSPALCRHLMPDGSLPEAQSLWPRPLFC
The experiment in a line: Acid sphingomyelinase inhibition, HL60 sonicate. The note with it: pH 5.0, 300 μM. Type of assay: biochemical. The procedure: (§1) N-hexyl-sphingosyl phosphorylcholine (AD-2144) was tested as to its inhibitory effect on sphingomyelinases, acidic (i.e., with an optimum at about pH 5) or neutral (with a pH optimum at about pH 7.4). For this purpose a sonicate of HL60 leukemic cells was used as enzyme source. Increasing concentrations of AD-2144 were dispersed by a mixture of fluorescent and non-fluorescent sphingomyelin (Bodipy-C12-SPM:SPM, 1:19), buffer and 0.25% Triton-X10O in a volume of 100 μl. For acid sphingomyelinase 0.4M acetate buffer pH 5.0 was used; for neutral sphingomyelinase 0.2M Tris buffer, pH 7.4 and 5 mM magnesium chloride. To 100 μl of these dispersions, 100 μl of HL60 cells sonicate were added. Incubation was 2-3 hours after which 0.8 ml of chloroform:methanol 2:1 were added, stirred and the lower, chloroform phase was collected, dried and applied to a thin layer chromatography plate. The plate was developed in a mixture of chloroform and methanol, 87:3. The fluorescence of the product, i.e., Bodipy-C12-ceramide, was quantified.

The next assay relates to neutral sphingomyelinase. The experiment in a line: Neutral sphingomyelinase inhibition, HL60 sonicate. Type of assay: biochemical, Human. The note with it: pH 7.4, 300 μM. The procedure: as §1
Another assay relates to HL60 cells. The experiment in a line: Apoptosis in HL60 cells, propidium iodide flow cytometry (FACS). The assay is classed as cell-based, Human. The procedure:
The apoptotic effect of three different compounds was further examined on HL60 cells using a flow cytometry method. […] Washed cells were then treated with 5% Triton and stained with propidium iodide 0.5% mg in 0.1% sodium citrate pH 7.4. Analysis was performed using a Becton Dickinson Fluorescence Activated Cell Sorter (FACS).

Assay [1] relates to Bod3-SPM synthesis in MCF-NCi cells. The experiment in a line: Sphingolipid metabolism: Bod3-SPM in MCF-NCi. Type of assay: cell-based, Human. As to conditions: 3 hours, 2.5 μM Bodipy-C3-ceramide, read-out: od 3-SPM (IC50 for reduction of Bod3-SPM). The procedure: (§2) In order to examine the effect of the different compounds on sphingolipids metabolism, different cell lines were incubated with increasing concentrations of different compounds of the invention in the presence of 2.5 μM Bodipy-C3-ceramide that was added to the culture medium as a solution in dimethylsulfoxide (not exceeding 0.1% DMSO of the final volium). After 3 hours, cells and medium were collected and centrifuged. Cells were next extracted with chloroform-methanol containing 2% acetic acid 1:1 (by volume) and the medium was shaken with an equal volume of chloroform-methanol, 1:1 (by volume). The phases were separated by centrifugation and the lower chloroform phase was collected. The solvents were evaporated and applied to thin layer chromatography silica gel plates (Whatman 4865-821) with a concentrating zone.
(§3) Plates were developed as follows: For medium: in chloroform-methanol-H2O, 75:25:4 by volume. For cells: plates were first developed with chloroform-methanol, 9:1, then dried and re-run in chloroform-methanol: H2O, 65:35:4.
(§4) Standards of Bodipy-C3-ceramide: Bodipy-C3-glucosylceramide (Bod3-GC) and Bodipy C3 sphingomyelin (Bod3-SPM) were used as markers. The fluorescence of the respective Bod3-SPM and Bod3-GC spots was quantified using a Fuji FLA-2000 scanner.

In assay [2] the test system is Bod3-SPM (sphingomyelin) synthesis in HL60 cells. The experiment in a line: Sphingolipid metabolism from Bodipy-C3-ceramide: Bod3-SPM in HL60. Type of assay: cell-based, Human. As to conditions: HL60, 3 hours, 2.5 μM Bodipy-C3-ceramide; read-out: od 3-SPM (IC50 for reduction of Bod3-SPM, cell+medium). The procedure:
as §2, §3, §4

The subject of assay [3] is Bod3-GC (glucosylceramide) synthesis in HL60 cells. The experiment in a line: Sphingolipid metabolism from Bodipy-C3-ceramide: Bod3-GC in HL60. Type of assay: cell-based, Human. The note with it: HL60, 3 hours, 2.5 μM Bodipy-C3-ceramide; read-out: od 3-GC (IC50 for Bod3-GC reduction). The procedure: as §2, §3, §4

For the molecule `CCCCCCCCCCCCC/C=C/[C@H](O)[C@@H](COP(=O)([O-])OCC[N+](C)(C)C)NCCCCCC` [AD-2144, L-Erythro Sphingosyl Phosphorylcholine-N-Hexyl], the “reduction in Bodipy-C12-ceramide” value at acid sphingomyelinase and with neutral sphingomyelinase was “over 60%” each time.

For `CCCCCCNc1ccc([C@@H](O)[C@@H](CO)NCCCCCC)cc1` [AD-2665, (2R,3R)-2-(N-hexylamine)-1-(4-N-hexylaminophenyl)-1,3-propanediol], the apoptotic cells in the assay with HL60 cells (HL60, 30 min, 40 μM) is listed as 5%; with HL60 cells (HL60, 3 hours, 10 μM), “about 8%”; with HL60 cells (HL60, 3 hours, 20 μM), 26%; in the assay with HL60 cells (HL60, 24 hours, 10 μM), 25%. In addition, the IC50 is 7 µM in assay [1], 4 µM in assay [2] and 5 µM in assay [3].
